Reference: patent publication US4479963A, “1-Carboxyalkanoylindoline-2-carboxylic acids” (Ciba-Geigy Corporation, priority 1982, dated 1984)
Blank lines part the entries; values can stand above or below the compound they belong to.

What was measured:
[1] = target: T1, angiotensin-converting enzyme (Oryctolagus cuniculus, UniProt P12822); assay: in vitro inhibition of the angiotensin-converting enzyme; format: biochemical, rabbit; conditions: hippuryl-histidyl-leucine substrate, 37°, 30 minutes; enzyme from lungs of adult male rabbits
T1 construct: freshly prepared from lungs of adult male rabbits; from tissue; host or cells: lungs of adult male rabbits
T1 sequence (P12822 34-1310): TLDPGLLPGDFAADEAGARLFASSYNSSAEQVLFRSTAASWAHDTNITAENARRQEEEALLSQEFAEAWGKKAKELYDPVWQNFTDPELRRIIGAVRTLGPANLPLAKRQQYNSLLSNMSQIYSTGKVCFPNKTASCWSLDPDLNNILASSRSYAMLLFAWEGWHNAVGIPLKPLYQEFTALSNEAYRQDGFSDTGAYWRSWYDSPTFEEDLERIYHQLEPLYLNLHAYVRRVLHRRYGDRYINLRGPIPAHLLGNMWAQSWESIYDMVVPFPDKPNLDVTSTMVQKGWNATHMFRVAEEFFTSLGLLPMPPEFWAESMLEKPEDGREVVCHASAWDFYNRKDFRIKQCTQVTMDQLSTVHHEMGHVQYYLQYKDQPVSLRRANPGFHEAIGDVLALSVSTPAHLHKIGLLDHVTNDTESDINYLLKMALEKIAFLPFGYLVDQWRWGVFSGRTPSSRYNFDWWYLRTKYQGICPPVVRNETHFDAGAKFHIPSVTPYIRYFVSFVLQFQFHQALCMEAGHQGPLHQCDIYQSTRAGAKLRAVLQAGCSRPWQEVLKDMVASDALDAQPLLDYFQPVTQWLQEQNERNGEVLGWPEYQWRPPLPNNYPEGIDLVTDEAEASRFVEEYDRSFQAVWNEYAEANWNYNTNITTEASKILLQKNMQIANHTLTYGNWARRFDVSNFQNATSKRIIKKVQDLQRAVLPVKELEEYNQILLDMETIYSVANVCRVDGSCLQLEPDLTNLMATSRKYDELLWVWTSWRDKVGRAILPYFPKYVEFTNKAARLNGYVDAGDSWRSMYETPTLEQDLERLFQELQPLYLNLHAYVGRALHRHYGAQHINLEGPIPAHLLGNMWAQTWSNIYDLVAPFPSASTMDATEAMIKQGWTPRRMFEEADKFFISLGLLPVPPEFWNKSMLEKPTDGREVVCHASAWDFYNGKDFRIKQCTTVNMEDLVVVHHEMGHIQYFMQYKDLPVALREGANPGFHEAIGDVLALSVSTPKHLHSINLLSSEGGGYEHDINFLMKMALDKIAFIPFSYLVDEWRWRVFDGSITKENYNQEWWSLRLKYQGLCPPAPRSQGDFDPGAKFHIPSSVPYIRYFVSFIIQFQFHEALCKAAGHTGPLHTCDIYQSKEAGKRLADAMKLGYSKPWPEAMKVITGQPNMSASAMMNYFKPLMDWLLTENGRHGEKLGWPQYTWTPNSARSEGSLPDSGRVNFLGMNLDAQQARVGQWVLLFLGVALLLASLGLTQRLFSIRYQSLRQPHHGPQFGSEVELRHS
Experimental: Biophys. Acta 293, 451 (1973). According to this method said compounds are dissolved at about 1 mM concentrations in phosphate buffer, externally cooled with ice. […] Said solutions are incubated at 37° for 30 minutes and combined with 0.75 ml of 0.6 N aqueous sodium hydroxide to stop further reaction. Then 100 μl of o-phthalaldehyde are added at room temperature, and 10 minutes later 100 μl of 6N hydrochloric acid. These samples are read against water in a spectrophotometer set at 360 nm, and the optical densities thereof estimated. They are corrected for the standard curve via a conversion factor expressing nanomoles of histidyl-leucine formed during said 30 minute incubation period. The results are plotted against drug concentration to determine the IC50, i.e., the drug concentration which gives half the activity of the control sample containing no drug.

[2] = system: angiotensin I converting enzyme; assay: inhibition of pressor response following angiotensin I challenge in the dog; format: in vivo; conditions: oral dose of 10 mg/Kg
[3] = system: angiotensin I converting enzyme; assay: inhibition of pressor response following angiotensin I challenge in normotensive rats; format: in vivo; conditions: rat
Experimental: The inhibition of said enzyme prevents the generation of angiotensin II from I and, therefore, attenuates any pressure response following an angiotensin I challenge.
The corresponding in vivo test is performed with male, normotensive rats, which are anesthetized with 100-120 mg/kg i.p. of sodium ethyl-(1-methylpropyl)malonylthiourea. A femoral artery and saphenous vein are cannulated for direct blood pressure measurement and i.v. administration of angiotensin I and compounds of this invention. After the basal blood pressure is stabilized, pressor responses to 3 challenges of 0.33 μg/kg of angiotensin I i.v., in 5 minute intervals, are obtained. Such pressure responses are again obtained 5, 10, 15, 30 and 60 minutes after either i.v., or p.o. administration (stomach tube) of the compounds to be tested, and compared with the initial responses.

[4] = system: spontaneous hypertensive rat; assay: blood pressure and heart rate in the spontaneous hypertensive rat; format: in vivo
Experimental: The in vivo lowering effect on the blood pressure is recorded either directly by means of a catheter, for example placed in the dog's femoral artery, or indirectly by sphygmomanometry at the rat's tail, and a transducer, expressing the blood pressure prior and after dosing in mm Hg. Thus, for example, representative members of the compounds of this invention, illustrated by the Examples herein, are very effective in hypertensive rats and dogs at p.o.-doses as low or lower than 50 mg/kg/day.

IC50 [1]: ~0.3 µM
SMILES: O=C(O)CCCC(=O)N1c2ccccc2C[C@H]1C(=O)O [1-(4-carboxybutanoyl)-indoline-2S-carboxylic acid]

IC50 [1]: ~0.03 µM
SMILES: C[C@H](C[C@@H](C)C(=O)N1c2ccccc2C[C@H]1C(=O)O)C(=O)O [1-(4-carboxy-2R,4R-dimethylbutanoyl)-indoline-2S-carboxylic acid]

IC50 [1]: ~0.04 µM
SMILES: C[C@H](CCC(=O)O)C(=O)N1c2ccccc2C[C@H]1C(=O)O [1-(4-carboxy-2R-methylbutanoyl)-indoline-2S-carboxylic acid]

SMILES: C[C@H](C[C@@H](C)C(=O)N1c2ccccc2C[C@H]1C(=O)O)C(=O)OCC(=O)OC1CC2CCC1(C)C2(C)C (stereo partly drawn) [1-4-(l-bornyloxycarbonylmethoxycarbonyl)-2R,4R-dimethylbutanoyl-indoline-2S-carboxylic acid]
inhibition of the pressor response following angiotensin I challenge [2]: inhibit the pressor response

SMILES: C[C@H](C[C@@H](C)C(=O)N1c2ccccc2C[C@H]1C(=O)O)C(=O)OCOC(=O)C(C)(C)C [1-[4-(pivaloyloxymethoxycarbonyl)-2R,4R-dimethylbutanoyl]-indoline-2S-carboxylic acid]
inhibition of the pressor response following angiotensin I challenge [2]: inhibit the pressor response

SMILES: CCOC(=O)[C@H](C)C[C@@H](C)C(=O)N1c2ccccc2C[C@H]1C(=O)O [1-(4-carboethoxy-2R,4R-dimethylbutanoyl)-indoline-2S-carboxylic acid]
inhibition of the pressor response following angiotensin I challenge ([3]; dose as low as 0.3 mg/Kg i.v.): about 50%
inhibition of the pressor response following angiotensin I challenge ([3]; dose as low as 4 mg/Kg p.o.): about 50%
decrease of heart rate ([4]; 30 mg/Kg p.o.): decrease heart rate
lowering of blood pressure ([4]; 30 mg/Kg p.o.): significantly lower blood pressure

IC50 [1]: ~0.005 µM
SMILES: C[C@H](C[C@@H](CCc1ccccc1)C(=O)O)C(=O)N1c2ccccc2C[C@H]1C(=O)O [1-(4-carboxy-2R-methyl-4R-phenethylbutanoyl)indoline-2S-carboxylic acid]

SMILES: CCOC(=O)[C@H](CCc1ccccc1)C[C@@H](C)C(=O)N1c2ccccc2C[C@H]1C(=O)O [1-(4-carboethoxy-2R-methyl-4R-phenethylbutanoyl)indoline-2S-carboxylic acid]
decrease of heart rate ([4]; 10 mg/Kg p.o.): decrease heart rate
lowering of blood pressure ([4]; 10 mg/Kg p.o.): significantly lower blood pressure
